# Where a name gives a salt, the structure may show the parent alone.
# Test system: phenyl-para-quinone induced writhing
# Test: phenyl-para-quinone writhing assay in mice (Analgesic PQW)
# Assay type: in vivo
# Conditions: 20 mg/kg, s.c.
# Source text: The compounds of the present invention are also useful as analgesic agents due to their ability to alleviate pain in mammals. […] Exptl. Biol. Med., 95, 729 (1957)]. Presented in Table 2 is the analgesic effect of some of the compounds of the invention expressed as either the subcutaneous dose at which 50% of the phenyl-para-quinone induced writhing is inhibited in the animals, i.e., the ED50 value, or at the % decrease in writhing at a give dose.
row,SMILES,Analgesic PQW % Inhibition of Writhing
1,"CCCCCCCCCC(CCCOP(=O)([O-])OCC[N+](C)(C)C)OCc1ccccc1 (stereo not shown) [4-Hydroxy-N,N,N-trimethyl-9-phenylmethoxy-3,5-dioxa-4-phosphaoctadecan-1-aminium, 4-oxide, hydroxide, inner salt monohydrate]",83%
2,"CCCCCCCCCCCCCCCC(CCCOP(=O)([O-])OCC[N+](C)(C)C)OCc1ccccc1 (stereo not shown) [4-Hydroxy-N,N,N-trimethyl-9-phenylmethoxy.3,5-dioxa-4-phosphatetracosan-1-aminium, 4-oxide, hydroxide, inner salt monohydrate]",36%
3,"CCCCCCCCCCCCCCCC(O)CCCOP(=O)([O-])OCC[N+]1(C)CCCC1 (stereo not shown) [4,9-Dihydroxy-N-methyl-3,5-dioxa-4-phosphatetetracosan-1-pyrrolidinium, 4-oxide, hydroxide, inner salt 3.5 hydrate]",62%
4,"C[N+](C)(C)CCOP(=O)([O-])OCCCC(O)CCCCCCCCCOc1ccccc1 (stereo not shown) [4,9-Dihydroxy-N,N,N-trimethyl-3,5-dioxa-18-phenoxy-4-phosphaoctadecan-1-aminium, 4-oxide, hydroxide, inner salt dihydrate]",48%

# — patent publication US5145844A, “Methods of using hydroxy-, alkoxy- and benzyloxy-substituted phospholipids to treat phospholipase A2 -mediated conditions and to alleviate pain” (Hoechst-Roussel Pharmaceuticals Incorporated, priority 1991, dated 1992)
